This is an account of results in patent publication US5426113A, “Method of preventing ulcer formation caused by nonsteroidal antiinflammatory drugs employing tetrazol-benzothiophene carboxamide compounds” (Warner-Lambert Company, priority 1994, dated 1995).

Entries after “also recorded” stand apart in the source; their conditions may differ. Where two headings read alike, the source gives them in different places.

The target of data set [1] is T1, MAC-1 (Homo sapiens, UniProt P05107+P11215).
T1 construct: endogenous in cells
To be noted: Wright C. D., et al., Keystone symposium 1994; cited from earlier work.

The subject of data set [2] is gastrointestinal tissues (stomach, small and large intestines). In words: Whole body autoradiography after intravenous radiolabeled Example 1. Format: in vivo.
The test system of data set [3] is aspirin-induced gastric damage. In words: Aspirin-induced gastric damage model (aspirin erosion model). As to conditions: Rattus norvegicus, 0.5 h. The data set is classed as in vivo. As for the experimental part: (§1) Fifteen minutes later, the animals were orally challenged with a single dose of 20 mg/kg indomethacin or 288 mg/kg aspirin. The animals were euthanized either at 4 hours (indomethacin) or 30 minutes (aspirin) later and the amount of gastric damage was assessed using image analysis.
Additional compounds of Formula I were tested in both the MAC-1 and the aspirin-induced gastric damage model (Table 1 and FIG. 4). Compounds which were active in the MAC-1 assay were also active in the gastric cytoprotective assay.

The test system of the next data set is basal acid secretion. In words: Shay rat model of basal acid secretion. To be noted: 50 or 200 mg/kg PO; pylorus ligated 1 hour later, acid content 4 hours later. The data set is classed as in vivo. As for the experimental part:
This has been tested in two different animal models. In the rat, Example 1 was tested in the Shay rat model of basal acid secretion. […] One hour later the animals were anesthetized and the pyloric sphincter to the stomach was ligated. The stomachs were removed 4 hours later and their acid content determined.

For data set [4], the system named is indomethacin-induced gastric damage. In words: Indomethacin-induced gastric damage model. Format: in vivo. As to conditions: Rattus norvegicus; oral, 15 minutes before 20 mg/kg indomethacin PO; assessed at 4 hours; read-out: ED50 cytoprotection, indomethacin. The protocol: as §1
Data set [5] has as its system human basophil histamine release. In words: Human basophil histamine release stimulated with anti-IgE. The data set is classed as cell-based.
The test system of data set [6] is stimulated acid secretion. In words: Dimaprit-stimulated gastric fistula beagle dog model. Format: in vivo. The source says:
All parameters of gastric secretion appeared to be practically identical to those observed in the vehicle-only controls.

Data set [7] has as its system NSAID-induced gastric damage. To be noted: indomethacin and aspirin in rats; Low J. E., et al., 1993; cited from earlier work.
Data set [8] concerns human colonic adenocarcinoma (CaCO-2) cells.
Experimental: [^14 C]Example 1 (22.9 μg/mL) was loaded on to either the apical (luminal) or basolateral (vascular) of the monolayer. Samples were obtained over 250 minutes from either side of the chamber in each experiment.
Data set [9] relates to leukocyte adhesion in the animal's mesenteric post-capillary venules. In words: NSAID (indomethacin)-induced leukocyte adhesion in rat mesenteric post-capillary venules, intravital microscopy. Format: in vivo. As to conditions: indomethacin 10 minutes later. The source says:
In these studies, oral treatment of rats with the NSAID indomethacin results in leukocyte adhesion in the animal's mesenteric post-capillary venules. This can be observed and measured using the technique of Intravital microscopy.

In data set [10] the test system is animal disease models (asthma, allergy, arthritis, adult respiratory distress syndrome (ARDS), and cardiac reperfusion). In words: Animal disease models (asthma, allergy, arthritis, ARDS, cardiac reperfusion). The data set is classed as in vivo.
Data set [11] concerns NSAID-induced gastric damage. In words: Gastric cytoprotection in animal models (NSAID-induced gastric damage). Format: in vivo. To be noted: Rattus norvegicus, po; range over models. As for the experimental part: as §1
The next data set can be described thus: Plasma protein binding. As to conditions: rat, dog, sheep, and human. Format: in vitro ADME.
The target in data set [12] is T1, MAC-1. In words: Inhibition of MAC-1 mediated adhesion of FMLP-stimulated neutrophils to KLH-coated plastic. To be noted: 1 h, read-out: increase of MAC-1 dependent adherence to KLH-coated plastic. The data set is classed as cell-based.
Setting [13] is: po, Table 1, aspirin-induced gastric damage model, read-out: Gastric Cytoprotective Effect (ED50, mg/kg PO).

T1 sequence (P05107 23-769, other chains not shown): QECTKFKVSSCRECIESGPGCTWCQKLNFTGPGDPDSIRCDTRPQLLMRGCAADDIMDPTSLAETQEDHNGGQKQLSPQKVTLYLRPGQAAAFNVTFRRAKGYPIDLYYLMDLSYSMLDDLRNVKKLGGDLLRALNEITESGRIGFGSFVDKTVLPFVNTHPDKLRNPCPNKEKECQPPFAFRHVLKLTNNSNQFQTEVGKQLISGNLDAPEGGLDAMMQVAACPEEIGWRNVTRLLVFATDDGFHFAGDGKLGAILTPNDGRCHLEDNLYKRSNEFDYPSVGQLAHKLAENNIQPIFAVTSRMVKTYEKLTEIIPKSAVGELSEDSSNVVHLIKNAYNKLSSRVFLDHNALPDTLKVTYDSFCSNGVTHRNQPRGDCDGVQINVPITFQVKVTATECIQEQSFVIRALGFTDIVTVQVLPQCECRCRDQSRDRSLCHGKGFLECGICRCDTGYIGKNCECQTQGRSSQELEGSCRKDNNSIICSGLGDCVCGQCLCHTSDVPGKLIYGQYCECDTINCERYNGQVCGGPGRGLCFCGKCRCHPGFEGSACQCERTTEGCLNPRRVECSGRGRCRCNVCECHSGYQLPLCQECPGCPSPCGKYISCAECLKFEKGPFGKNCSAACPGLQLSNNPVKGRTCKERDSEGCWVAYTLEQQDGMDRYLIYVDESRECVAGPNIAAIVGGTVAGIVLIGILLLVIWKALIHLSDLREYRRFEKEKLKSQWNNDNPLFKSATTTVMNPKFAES

The term IC50 denotes the concentration that inhibits the measured activity by half. Higher therefore signals a need for much substance. A word on the fraction unbound: it is the share of the substance not bound to proteins or other matrix. On to `COc1ccc2sc(C(=O)Nc3nnn[nH]3)c(OC(C)C)c2c1` [Example 1, 5-Methoxy-3-(1-methylethoxy)-N-1H-tetrazol-5-yl-benzo[b]thiophene-2-carboxamide], for which the “inhibition of neutrophil adhesion mediated by MAC-1” value on MAC-1 [1] is recorded as “can inhibit neutrophil adhesion; also recorded: inhibits neutrophil adhesion”. Moreover, in [2] (rapid), the “time to radiolabeled material associated with gastrointestinal tissues” value turned out to be 5 min. In data set [2] (stomach, small and large intestines), the “levels of radiolabeled material associated with gastrointestinal tissues” value is recorded as “high levels”. Further, the ED50 is 0.01 mg/kg in [3] (oral, 15 minutes before 288 mg/kg aspirin PO, assessed at 30 minutes, read-out: ED50 cytoprotection, aspirin); 1 mg/kg in [4]; 5 to 20 mg/kg in data set [10] (IV); 30 to 100 mg/kg in data set [10] (oral); 0.01 to 1 mg/kg in data set [11]. Besides, the “effect on basal acid secretion” value in the data set on basal acid secretion is “no effect”. The molecule also registered an IC50 in data set [5] (Homo sapiens, anti-IgE stimulated, absence of serum) of 300 nM. The “inhibitory effect on human basophil histamine release in the presence of serum” value in data set [5] (increasing concentration of serum (5-50%)) was “significantly reduced”. Further, the “changes in gastric secretion” value in data set [6] (0.1, 1.0, or 10 mg/kg PO, dimaprit-stimulated) is recorded as “no significant changes”. Also, the “gastric cytoprotective effects against damage caused by NSAIDs” value in [7] is on record as “gastric cytoprotective effects”. Besides, the “amount on apical side compared to basolateral side” value in [8] is “significantly more”. Besides, the “inhibition of indomethacin-induced leukocyte adhesion” value in data set [9] (1 mg/kg PO, 40 and 70 minute time point) is listed as “no protective effects”; in data set [9] (5 or 10 mg/kg PO) it was “complete inhibition”. Moreover, the fraction unbound in the data set “Plasma protein binding” was 0.01 to 0.02.

For the molecule `COc1ccc2c(OC(C)C)c(C(=O)Nc3nnn[nH]3)sc2c1` [Example 2, 6-Methoxy-3-(1-methylethoxy)-N-1H-tetrazol-5-yl-benzo[b]thiophene-2-carboxamide], the ED50 in data set [3] (setting [13]) came out at 1 mg/kg.

In the case of `COc1cc2sc(C(=O)Nc3nnn[nH]3)c(OC(C)C)c2cc1OC` [Example 3, 5,6-Dimethoxy-3-(1-methylethoxy)-N-1H-tetrazol5-yl-benzo[b]thiophene-2-carboxamide], the ED50 in data set [3] (setting [13]) was 1 mg/kg.

Regarding `COc1cc2sc(C(=O)Nc3nnn[nH]3)c(Oc3ccccc3)c2cc1OC` [Example 4, 5,6-Dimethoxy-3-phenoxy-N-1H-tetrazol-5-yl-benzo[b]thiophene-2-carboxamide], in [3] (setting [13]), the ED50 turned out to be 0.01 mg/kg.

In the case of `CSCC[C@H](NC=O)C(=O)N[C@@H](CC(C)C)C(=O)N[C@@H](Cc1ccccc1)C(=O)O` [N-formyl-methionyl-leucyl-phenylalanine], the activation at 0.01 µM on MAC-1 [12] worked out at 49%.

For the molecule `CN(C)CCCSC(=N)N` [dimaprit], the “gastric secretion pH” value in data set [6] (constant intravenous 0.2 mg/kg hr) amounted to 1.0.

Regarding `CNC(=C[N+](=O)[O-])NCCSCc1ccc(CN(C)C)o1` [ranitidine], in [6] (1.5 mg/kg PO, dimaprit 0.2 mg/kg hr IV), the “increase in gastric pH” value came out at 4 units.
